Data reported in patent US20250019708A1, “METHODS FOR THE TREATMENT OF HRD CANCER AND BRCA-ASSOCIATED CANCER” (INSTITUT CURIE, priority 2021, published 2025).

What was measured:
[1] = test system: PARPi-resistant OVCAR8 xenografts; assay: PARPi-resistant xenograft tumor growth and survival; type: in vivo, athymic nude mice; settings: versus vehicle; FIG. 6A
Source text: FIG. 6: NMNAT1 inhibition kills PARPi-resistant HRD tumors in vivo. A. Growth (relative tumor volume, RTV) of parental and PARPi-resistant OVCAR8 xenografts in vivo upon PARPi (rucaparib) or vehicle treatment. B, Growth (relative tumor volume, RTV) of PARPi-resistant OVCAR8 xenografts in vivo. C, Relative tumour volumes (RTV) for individual mice treated in B after five weeks of treatment. D, Overall survival for mice bearing PARPi-resistant OVCAR8 xenografts treated with vehicle or doxycycline. For data shown in FIG. 6, the PARPi-resistant OVCAR8 cells were xenotransplanted subcutaneously in athymic nude mice. Doxycycline was supplemented in the food (625 p.p.m.).
To translate these findings into a translational setting, the inventors derived a PARPi-resistant clone from the PARPi-naive BRCA1-deficient OVCAR8 lines, expressed either doxycycline-inducible NMNAT1 or scrambled (Scr) shRNA in these cells, and xenograft them in athymic nude mice.
As expected the OVCAR8 PARPi-resistant cells were resistant to the PARPi rucaparib in vivo (FIG. 6A).

NMNAT1−/− RPE-1 cells = assay: Survival assay with PARP inhibitor; type: cell-based; settings: versus WT RPE-1; FIG. 1g
Source text: FIG. 1: a, Quantification (left) and representative images (right) of clonogenic formation of wild type (WT) and BRCA2^−/− (clones C1 and C2) RPE-1 cells with and without BRCA2 cDNA complementation, after transfection with the indicated NMNAT1 siRNAs. b, Clonogenic formation (left) and WB-analysis (right) of BRCA2 mAID HeLa cells in the presence or absence of auxin (IAA) after transduction with viral particles carrying NMNAT1 shRNA or control. c, Clonogenic formation of WT and BRCA1^−/− RPE-1 cells after transfection with siNMNAT1 #2. d, Clonogenic formation of WT and NMNAT1^−/− RPE-1 cells after transfection with the indicated BRCA1/2 siRNAs. e, Quantification (left) and representative images (right) of clonogenic formation of the indicated HR-proficient and HR-deficient cells upon siNMNAT1. f, DNA damage quantification by alkaline COMET assay of P53−/− RPE-1 cells in the presence or absence of NMNAT1. g, Survival assay of WT and NMNAT1^−/− RPE-1 cells exposed to the indicated doses of the PARP inhibitor rucaparib (PARPi).
Accumulation of DNA lesions can result in increased sensitivity to genotoxic drugs. Given that NMNAT1 functions upstream of PARP1 by providing NAD^+, the reduced PARP1 activity upon NMNAT1 loss might account for the observed synthetic lethality between NMNAT1 and BRCA.

CNCc1ccc(-c2[nH]c3cc(F)cc4c3c2CCNC4=O)cc1 [rucaparib]
response of tumor to PARPi in vivo [1]: resistant | sensitivity to PARP inhibitor (survival) (NMNAT1−/− RPE-1 cells): sensitized
